Source: US9756860B2, “Antimicrobial composition of ortho phenylphenol and silver” (Rohm and Haas Company, priority 2011, dated 2017)
Where two headings read alike, the source gives them in different places.

Key:
Format in all cases: cell-based
[1] = system: Candida albicans ATCC#10203; assay: MIC / synergy index test in 96 well microtiter plates, yeast; conditions: C. albicans, ppm active; for MIC: Candida albicans, ATCC10203, alone, read-out: MIC of compound acting alone (CA / CB)
Method: (§1) Ortho phenylphenol and silver are evaluated for synergy by determining the synergy index (S.I.) of the combination. Synergy index is calculated based on minimum inhibitory concentrations (MIC) of two antimicrobial compounds (A and B) alone and in combinations. The tests organisms are Gram negative bacteria (Pseudomonas aeruginosa), Gram positive bacteria (Staphylococcus aureus), yeast (Candida albicans) and mold (Aspergillus niger). Contact time for the bacteria is 24 and 48 hours, yeast is 48 and 72 hrs, and 3 and 7 days for mold. The test is carried out in 96 well microtiter plates.
(§2) SI is calculated as follows: Ca/CA+Cb/CB=Synergy Index (“SI”) Wherein: • CA=concentration of compound A in ppm, acting alone, which produced an end point (MIC of Compound A). • Ca=concentration of compound A in ppm, in the mixture, which produced an end point. • CB=concentration of compound B in ppm, acting alone, which produced an end point (MIC of Compound B). • Cb=concentration of compound B in ppm, in the mixture, which produced an end point. When the sum of Ca/CA and Cb/CB is greater than one, antagonism is indicated.

[2] = system: Staphylococcus aureus ATCC# 6538; assay: MIC / synergy index test in 96 well microtiter plates, Gram positive bacteria; conditions: S. aureus, ppm active; for MIC: Staphylococcus aureus, ATCC6538, alone, read-out: MIC of compound acting alone (CA / CB)
Method: as §1, §2

[3] = system: Pseudomonas aeruginosa ATCC # 15442; assay: MIC / synergy index test in 96 well microtiter plates, Gram negative bacteria; conditions: Ps. aeruginosa, ppm active; for MIC: Pseudomonas aeruginosa, ATCC15442, alone, read-out: MIC of compound acting alone (CA / CB)
Method: as §1, §2

[4] = system: Aspergillus niger ATCC# 16404; assay: MIC / synergy index test in 96 well microtiter plates, mold; conditions: A. niger, ppm active
Method: as §1, §2

Compound	MIC of compound acting alone (CA / CB) ([1]; contact time 48 hrs) [ppm]	MIC of compound acting alone (CA / CB) ([1]; contact time 72 hrs) [ppm]	MIC of compound acting alone (CA / CB) ([2]; contact time 24 hrs) [ppm]	MIC of compound acting alone (CA / CB) ([2]; contact time 48 hrs) [ppm]	MIC of compound acting alone (CA / CB) ([3]; contact time 24 hrs) [ppm]	MIC of compound acting alone (CA / CB) ([3]; contact time 48 hrs) [ppm]	MIC of compound acting alone (CA / CB) ([4]; contact time 3rd day) [ppm]	MIC of compound acting alone (CA / CB) ([4]; contact time 7th day) [ppm]	MIC ([1]; contact time 48 hrs) [µg/mL]	MIC ([1]; contact time 72 hrs) [µg/mL]	MIC ([2]; contact time 24 hrs) [µg/mL]	MIC ([2]; contact time 48 hrs) [µg/mL]	MIC ([3]; contact time 24 hrs) [µg/mL]	MIC ([3]; contact time 48 hrs) [µg/mL]	MIC ([4]; Aspergillus niger, ATCC16404, contact time 7th day, alone, read-out: MIC of compound acting alone (CA / CB)) [µg/mL]
O=[N+]([O-])[O-].[Ag+] [AgNO3, Silver Nitrate]	10	10	6	8	0.4	1	3	10	–	–	–	–	–	–	–
Oc1ccccc1-c1ccccc1 [OPP, ortho-phenylphenol]	–	–	–	–	–	–	75	–	150	150	200	200	500	500	75
